Results published in patent publication US20110008261A1, “METHOD TO PRODUCE HYPERPOLARISED AMINO ACIDS AND AMINOSULPHONIC ACIDS” (GE HEALTHCARE LIMITED, priority 2008, published 2011).

Legend:
[1] = Solid state polarisation after DNP, by solid state 13C-NMR; assay type: physicochemical; conditions: 3.35 T, 93.90 GHz
Method: The level of polarisation may for instance be determined by solid state NMR measurements of the NMR nucleus in the frozen hyperpolarised sample. For instance, if the NMR active nucleus in the hyperpolarised sample is ^13C, a solid state ^13C-NMR measurement is carried out. The solid state ^13C-NMR measurement preferably consists of a simple pulse-acquire NMR sequence using a low flip angle. The signal intensity of the hyperpolarised sample in the ^13C-NMR spectrum is compared with signal intensity of the sample in a ^13C-NMR spectrum acquired before the DNP polarisation process. The level of polarisation is then calculated from the ratio of the signal intensities of before and after polarisation.
The probe is inserted into the probe-retaining container, submerged in the liquid helium and irradiated with microwaves, preferably at a frequency of about 94 GHz at 200 mW. The level of polarisation may for instance be monitored by solid state NMR measurements of the NMR active nucleus in the frozen solution comprising the hyperpolarised sample. For instance, if the NMR active nucleus in the hyperpolarised sample is ^13C, a solid state ^13C-NMR measurement is carried out. The solid state ^13C-NMR measurement preferably consists of a simple pulse-acquire NMR sequence using a low flip angle. The signal intensity of the hyperpolarised sample in the ^13C-NMR spectrum is compared with signal intensity of the sample in a ^13C-NMR spectrum acquired before the DNP polarisation process. The level of polarisation is then calculated from the ratio of the signal intensities of before and after polarisation.
32.5 mg (0.258 mmol) of the ^13C1-alanine hydrochloride obtained in Example 1a was added to 42 mg of a stock solution in a micro test tube. The stock solution had been prepared by dissolving the DNP agent (trityl radical) tris(8-carboxy-2,2,6,6-(tetra(hydroxyethyl)-benzo-[1,2-4,5′]-bis-(1,3)-dithiole-4-yl)-methyl sodium salt which had been synthesised according to Example 7 of WO-A1-98/39277 and the paramagnetic metal ion (Gd-chelate of 1,3,5-tris-(N-(DO3A-acetamido)-N-methyl-4-amino-2-methylphenyl)-[1,3,5]triazinane-2,4,6-trione) which had been synthesised according to Example 4 of WO-A-2007/064226 in glycerol in such a way that a glycerol solution being 26 mM in trityl radical and 0.52 mM in Gd-chelate had been obtained. The resulting composition was sonicated to dissolve the ^13C1-alanine hydrochloride and produce a clear solution. […] The frozen solution was polarised under DNP conditions at 1.2 K in a 3.35 T magnetic field under irradiation with microwave (93.90 GHz). Polarisation was followed by solid state ^13C-NMR and the solid state polarisation was determined to be 40%.
^13C1-glutamine (45.5 mg, 0.30 mmol, Cambridge Isotopes) was weighted into a micro test tube and dissolved in 23.5 μl water and 25 μl aqueous NaOH (12 M). The mixture was sonicated and gently heated to produce a clear solution. To the solution was added 5.7 mg of an aqueous solution of tris(8-carboxy-2,2,6,6-(tetra(hydroxyethyl)-benzo-[1,2-4,5′]-bis-(1,3)-dithiole-4-yl)-methyl sodium salt (trityl radical; 139 μmol/g solution) and 2.1 mg of an aqueous solution of the Gd-chelate of 1,3,5-tris-(N-(DO3A-acetamido)-N-methyl-4-amino-2-methylphenyl)-[1,3,5]triazinane-2,4,6-trione) (paramagnetic metal ion; 14.5 μmol/g solution) The resulting composition was sonicated and gently heated to produce a clear solution. […] The sample cup was removed from the liquid nitrogen, 25 μl aqueous HCl (12 M) were added to the sample cup. […] The frozen solution was polarised under DNP conditions at 1.2 K in a 3.35 T magnetic field under irradiation with microwave (93.90 GHz). Polarisation was followed by solid state ^13C-NMR and the solid state polarisation was determined to be 35%.

[2] = Liquid state polarisation after liquefaction and neutralization, by liquid state 13C-NMR at 400 MHz; assay type: physicochemical
Method: In a similar way, the level of polarisation for liquid hyperpolarised samples may be determined by liquid state NMR measurements of the NMR active nucleus in the liquid hyperpolarised sample. Again the signal intensity of the liquid hyperpolarised sample is compared with the signal intensity of the liquid sample before polarisation. The level of polarisation is then calculated from the ratio of the signal intensities of before and after polarisation.
After 150 minutes of dynamic nuclear polarisation, the obtained frozen polarised solution was dissolved in a dissolution medium containing 6 ml of a phosphate buffer (20 mM, pH 6.8, 100 mg/l EDTA), aqueous NaOH (27 μl 12 M solution, 1 eq) and 30 mg NaCl.
After 120 minutes of dynamic nuclear polarisation, the obtained frozen polarised solution was dissolved in a dissolution medium containing 6 ml phosphate buffer (40 mM, pH 7, 100 mg/l EDTA, 0.9% NaCl).

[3] = acidic preparation according to Example 1, DNP at 1.2 K
[4] = basic preparation according to Example 2, DNP at 1.2 K
[5] = acidic preparation according to Example 1, after liquefaction and neutralization
[6] = basic preparation according to Example 2, after liquefaction and neutralization

Work on `NC[13C](=O)O` [^13C1-glycine] yielded a Solid state polarisation [1, 3] of 16%, a Solid state polarisation [1, 4] of 19% and a Liquid state polarisation [2, 5] of 16%. It also gave a Liquid state polarisation [2, 6] of 18%.

For `CSCCC(N)[13C](=O)O` (stereo not drawn) [^13C1-methionine], the Solid state polarisation [1, 3] was 41% and the Liquid state polarisation [2, 5] was 26%.

`CC(N)[13C](=O)O` (stereo not drawn) [^13C1-alanine] showed a Solid state polarisation [1, 4] of 18%, a Liquid state polarisation ([2]; Example 1c, after 150 minutes DNP, dissolved in phosphate buffer/NaOH, final pH 6.8, 400 MHz) of 35% and a Liquid state polarisation [2, 6] of 16%.

Compound `NC(=O)CC[C@H](N)[13C](=O)O` [^13C1-glutamine] has a Liquid state polarisation ([2]; Example 2b, after 120 minutes DNP, dissolved in phosphate buffer, final pH 7, 400 MHz) of 30% and a Liquid state polarisation [2, 5] of 6%.

For `N[C@@H](CS)[13C](=O)O` [^13C1-cysteine], the Solid state polarisation [1, 3] was 25% and the Liquid state polarisation [2, 5] was 17%.

Compound `O=[13C](O)C1CCCN1` (stereo not drawn) [^13C1-proline] has a Liquid state polarisation [2, 5] of 16%.

For `CC(C)C[C@H](N)[13C](=O)O` [^13C1-leucine], the Solid state polarisation [1, 4] was 35% and the Liquid state polarisation [2, 6] was 21%.

With `NC(=O)CCC(N)[13C](=O)[O-].[Na+]` (stereo not drawn) [Sodium ^13C1-2-amino-4-carbamoyl-butanoate] the Solid state polarisation ([1]; Example 2a, 4 M aqueous, 11 mM trityl radical, 0.4 mM Gd3+, 1.2 K) was 35%.

In the case of `C[C@H](N)[13C](=O)O.Cl` [^13C1-alanine hydrochloride, ^13C1-alaninium chloride], the Solid state polarisation ([1]; Example 1b, 4 M in glycerol, 17 mM trityl radical, 0.9 mM Gd3+, 1.2 K) is reported as 40%.
